Assay [1] addresses T1, COX-2 (Homo sapiens, UniProt P35354).
T1 construct: gene PTGS2; docking used 4M11
T1 sequence (P35354 18-604): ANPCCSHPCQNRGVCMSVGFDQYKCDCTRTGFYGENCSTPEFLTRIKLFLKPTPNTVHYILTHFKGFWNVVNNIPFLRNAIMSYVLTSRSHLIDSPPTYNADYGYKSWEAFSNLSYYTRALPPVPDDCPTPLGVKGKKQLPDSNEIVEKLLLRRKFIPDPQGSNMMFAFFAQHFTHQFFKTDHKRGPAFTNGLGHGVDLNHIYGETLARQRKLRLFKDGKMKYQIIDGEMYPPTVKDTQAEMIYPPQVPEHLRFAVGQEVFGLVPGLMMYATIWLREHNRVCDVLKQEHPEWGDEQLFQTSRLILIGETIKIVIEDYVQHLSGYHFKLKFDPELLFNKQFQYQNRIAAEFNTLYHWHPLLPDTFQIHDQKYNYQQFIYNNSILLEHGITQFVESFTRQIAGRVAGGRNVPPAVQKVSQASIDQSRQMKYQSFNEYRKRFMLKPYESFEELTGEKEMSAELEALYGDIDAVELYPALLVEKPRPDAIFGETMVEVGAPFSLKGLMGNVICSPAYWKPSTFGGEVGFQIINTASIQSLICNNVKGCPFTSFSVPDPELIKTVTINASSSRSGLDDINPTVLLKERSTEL
Put plainly: colorimetric COX peroxidase assay, […] nm (Cayman […]). The note with it: read-out: Cyclooxygenase Inhibition Assay IC50 [μM] / COX-2. The assay is classed as biochemical.

For assay [2], the target named is T2, Bovine Serum Albumin (BSA) (Bos taurus, UniProt P02769).
T2 construct: gene ALB
Nature of the assay: intrinsic fluorescence quenching, excitation […] nm. The assay is classed as binding. The note with it: 294 K, pH 7.4, no site marker, double-log.

The mark [3] stands for this setting: unreliable (Table 5 rows of 5a and 5b are identical, likely a copying error).

T2 sequence (P02769 25-607): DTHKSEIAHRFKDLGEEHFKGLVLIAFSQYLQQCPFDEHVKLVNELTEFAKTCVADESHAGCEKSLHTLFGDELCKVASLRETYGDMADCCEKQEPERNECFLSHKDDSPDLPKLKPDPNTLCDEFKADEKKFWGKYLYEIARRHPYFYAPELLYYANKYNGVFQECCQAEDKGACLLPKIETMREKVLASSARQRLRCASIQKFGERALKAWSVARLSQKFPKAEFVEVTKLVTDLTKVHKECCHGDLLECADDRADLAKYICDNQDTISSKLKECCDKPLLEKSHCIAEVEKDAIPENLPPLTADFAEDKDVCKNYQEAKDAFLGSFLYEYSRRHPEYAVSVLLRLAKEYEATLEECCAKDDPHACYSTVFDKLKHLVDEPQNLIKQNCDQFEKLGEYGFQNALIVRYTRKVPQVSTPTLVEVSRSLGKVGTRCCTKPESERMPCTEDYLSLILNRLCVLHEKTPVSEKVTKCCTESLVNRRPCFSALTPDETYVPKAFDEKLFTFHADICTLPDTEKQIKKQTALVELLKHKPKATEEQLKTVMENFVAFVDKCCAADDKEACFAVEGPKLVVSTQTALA

In the case of `CCCCn1c(C)c2c(OCc3nnc(SCC(=O)N4CCN(c5ncccn5)CC4)o3)nn(C)c(=O)c2c1C` [6b, 6-butyl-3,5,7-trimethyl-1-[[2-[2-oxo-2-(4-pyrimidin-2-ylpiperazin-1-yl)ethyl]sulfanyl-1,3,4-oxadiazol-5-yl]methoxy]pyrrolo[3,4-d]pyridazin-4-one], in assay [1], the IC50 is 371 µM. Moreover, the “Binding / Kb × 10^4 [dm^3.mol^-1]” value in assay [2] was 8.51 × 10^4 dm^3·mol^−1.
Consider `Cc1c2c(OCc3nnc(SCC(=O)N4CCN(c5ncccn5)CC4)o3)nn(C)c(=O)c2c(C)n1-c1ccccc1` [6a, 3,5,7-trimethyl-1-[[2-[2-oxo-2-(4-pyrimidin-2-ylpiperazin-1-yl)ethyl]sulfanyl-1,3,4-oxadiazol-5-yl]methoxy]-6-phenyl-pyrrolo[3,4-d]pyridazin-4-one], for which the IC50 in assay [1] worked out at 160 µM. Also, the “Binding / Kb × 10^4 [dm^3.mol^-1]” value in assay [2] is recorded as 7.24 × 10^4 dm^3·mol^−1.
With `Cc1c2c(OCc3nnc(SCC(=O)N4CCN(c5ccccc5)CC4)o3)nn(C)c(=O)c2c(C)n1-c1ccccc1` [5a, 3,5,7-trimethyl-1-[[2-[2-oxo-2-(4-phenylpiperazin-1-yl)ethyl]sulfanyl-1,3,4-oxadiazol-5-yl]methoxy]-6-phenyl-pyrrolo[3,4-d]pyridazin-4-one], the IC50 in assay [1] is 659 µM. Further, in assay [2] (setting [3]), the “Binding / Kb × 10^4 [dm^3.mol^-1]” value was 12.30 × 10^4 dm^3·mol^−1.
On the same counts, the results for `CCCCn1c(C)c2c(OCc3nnc(SCC(=O)N4CCN(c5ccccc5)CC4)o3)nn(C)c(=O)c2c1C` [5b, 6-butyl-3,5,7-trimethyl-1-[[2-[2-oxo-2-(4-phenylpiperazin-1-yl)ethyl]sulfanyl-1,3,4-oxadiazol-5-yl]methoxy]pyrrolo[3,4-d]pyridazin-4-one] are 257 µM and 12.30 × 10^4 dm^3·mol^−1.

Source of the values: paper PMC7766220, “Design, Synthesis and Comprehensive Investigations of Pyrrolo[3,4-d]pyridazinone-Based 1,3,4-Oxadiazole as New Class of Selective COX-2 Inhibitors” (International Journal of Molecular Sciences, 2020).
